# Data as given in PMC8810773, “Structure-based prediction of HDAC6 substrates validated by enzymatic assay reveals determinants of promiscuity and detects new potential substrates” (Scientific Reports, 2022).
# Target: T1, HDAC6 catalytic domain 2 (DD2) (Danio rerio, UniProt F8W4B7)
# T1 construct: cloning the residues 440–798 of the Danio rerio HDAC6 gene into a modified pET28a(+) vector; 6xHis (N, cleaved yes); made in house; host or cells: E. coli BL21(DE3)
# T1 sequence (F8W4B7 440-798): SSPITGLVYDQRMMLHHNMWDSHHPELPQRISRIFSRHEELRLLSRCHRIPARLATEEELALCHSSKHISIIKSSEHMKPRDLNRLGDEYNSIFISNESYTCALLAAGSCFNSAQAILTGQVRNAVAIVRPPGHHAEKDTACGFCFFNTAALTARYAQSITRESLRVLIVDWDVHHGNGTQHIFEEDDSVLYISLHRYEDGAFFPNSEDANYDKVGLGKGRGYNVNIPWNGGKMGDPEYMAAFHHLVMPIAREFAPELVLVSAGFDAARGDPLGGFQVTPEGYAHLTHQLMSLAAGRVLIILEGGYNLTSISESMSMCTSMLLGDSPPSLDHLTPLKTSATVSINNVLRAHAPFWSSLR
# Assay: Enzyme-coupled acetate detection assay ('acetate assay') of HDAC6-catalyzed peptide deacetylation
# Type: biochemical
# Details: Michaelis–Menten fit ± standard error; for kcat/KM: 10–2000 μM monoacetylated substrate, 0.1–1 μM HDAC6 DD2, 50 mM HEPES pH 8.0, 137 mM NaCl, 2.7 mM KCl, 1 mM MgCl2, 30 °C, NADH fluorescence, lower limits where KM below detection limit
# Excerpt: We used an enzyme-coupled acetate detection assay, or simply the ‘acetate assay’ (see “Methods”), developed and applied previously[12],[27], to measure the catalytic efficiency (kcat/KM) of HDAC6. We measured catalysis of deacetylation of acetylated peptides with sequences taken from known substrate proteins, as well as a set of selected peptides with reported acetylation sites that were available to us from previous studies (Table 1). […] To ensure an accurate determination of kcat/KM we measured HDAC6-catalyzed deacetylation at a minimum of four peptide concentrations, with at least two concentrations below KM (Fig. 1, squares). A total of 26 peptides which met these criteria formed our training set (D-TRAINING, Table 1). Additionally, we included 16 peptides where the value of kcat was measured accurately but the KM value was lower than the limit of detection for the acetate assay (~ 10–20 μM substrate, circles in Fig. 1) allowing only the determination of a lower limit for the value of kcat/KM (set D-CAPPED, see below and Table 1). The measured kcat/KM values span the range of three orders of magnitude.
# Figure 1 Dependence of deacetylation rate on substrate concentration for two representative peptides catalyzed by HDAC6, measured using the acetate assay. The initial velocity for each substrate concentration was determined from a linear regression of a time course consisting of a minimum of three timepoints, standard error is shown. The kinetic parameters are determined from a nonlinear least square fit of the Michaelis–Menten equation to the data and are listed in Table 1. Black squares: example of data which met the criteria to produce accurate kcat/KM values. Green circles: example of overfit data resulting in calculation of a lower limit for kcat/KM, due to the KM being lower than the detection limit of the assay.
# The coupled acetate detection assay or simply the ‘acetate assay’ was performed as previously described with a few modifications. Briefly, lyophilized peptides were re-suspended in water when possible or with minimal quantities of acid, base, or organic solvent to improve solubility. Peptide concentration was determined by one or more of the following methods: (1) measuring A280 using the extinction coefficients if the peptide contained a tryptophan or tyrosine, using the fluorescamine assay if the peptide contained a free lysine, (2) performing the bicinchoninic acid (BCA) assay using bovine serum albumin (BSA) as a standard, and (3) determining the concentration of acetate produced by complete deacetylation of the peptide by HDAC6.
# Reactions containing 10–2000 μM monoacetylated peptides in 1× HDAC6 assay buffer (50 mM HEPES, pH 8.0, 137 mM NaCl, 2.7 mM KCl, 1 mM MgCl2) were initiated with 0.1–1 μM HDAC6 at 30 °C. […]
substance,measurement,setting,value
"RKSTGG(K-ac)APRKQL [13-mer: RKSTGG(K-ac)APRKQL, H3 K14ac 13-mer peptide]",kcat/KM,,"140,000±10,000 M^−1 s^−1"
same,kcat/KM,listed as 13-mer peptide analog,140000 M⁻¹ s⁻¹
same,kcat,"HDAC6 DD2, pH 8.0, 30 °C",4.1 ± 0.3 s⁻¹
same,Km,"HDAC6 DD2, pH 8.0, 30 °C, detection limit ~10–20 μM substrate",28 ± 5 µM
